Results taken from the supplement of paper PMC10307832.

Key:
Test in all cases: relative viability (nuclei count vs DMSO), 5 days (fraction); higher = more cells survive
[1] = compound: CN1C=C(C2=CC=CC=C21)/C=C\3/C4=C(C=CC=N4)NC3=O + O=C(c1cc(Cc2n[nH]c(=O)c3ccccc23)ccc1F)N1CCN(C(=O)C2CC2)CC1 [Olaparib] (partner 8 µM)
Outline: (§1)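 A single step with final 0.05% Triton X-100, 1% formaldehyde and 1 ug/ml Hoechst fixed the cells and stained nuclei 5 days after treatment. Lung cancer cell lines in 1536-well plates had been treated by pin tool the day after seeding with one drug alone or a fixed anchor-drug dose plus five library-drug doses (not always all listed) in √10 steps, and nuclei were counted on 4× images. Relative viability is the ratio of nuclei in treated wells to nuclei in vehicle wells, taken as the median of duplicate plates.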

[2] = compound: CN1C=C(C2=CC=CC=C21)/C=C\3/C4=C(C=CC=N4)NC3=O + CS(=O)(=O)N1CCN(Cc2cc3nc(-c4cccc5[nH]ncc45)nc(N4CCOCC4)c3s2)CC1 [Pictilisib] (partner 1 µM)
Outline: as §1

[3] = compound: CN1C=C(C2=CC=CC=C21)/C=C\3/C4=C(C=CC=N4)NC3=O + Cc1cc(Nc2cc(N3CCN(C)CC3)nc(Sc3ccc(NC(=O)C4CC4)cc3)n2)n[nH]1 [Tozasertib] (partner 0.1 µM)
Outline: as §1

[4] = compound: CN1C=C(C2=CC=CC=C21)/C=C\3/C4=C(C=CC=N4)NC3=O + COc1cc2c(Oc3ccc(NC(=O)C4(C(=O)Nc5ccc(F)cc5)CC4)cc3F)ccnc2cc1OCCCN1CCOCC1 [Foretinib] (partner 0.25 µM)
Outline: as §1

Cell Line | relative viability ([1]; first compound 0.02 µM) | relative viability ([1]; first compound 0.06325 µM) | relative viability ([1]; first compound 0.6325 µM) | relative viability ([1]; first compound 2 µM) | relative viability ([2]; first compound 0.02 µM) | relative viability ([2]; first compound 0.06325 µM) | relative viability ([2]; first compound 0.2 µM) | relative viability ([2]; first compound 0.6325 µM) | relative viability ([2]; first compound 2 µM) | relative viability ([3]; first compound 0.02 µM) | relative viability ([3]; first compound 0.06325 µM) | relative viability ([3]; first compound 0.2 µM) | relative viability ([3]; first compound 0.6325 µM) | relative viability ([3]; first compound 2 µM) | relative viability ([4]; first compound 0.02 µM) | relative viability ([4]; first compound 0.06325 µM) | relative viability ([4]; first compound 0.2 µM) | relative viability ([4]; first compound 0.6325 µM) | relative viability ([4]; first compound 2 µM) | relative viability ([1]; first compound 0.2 µM)
HOP-62 | 0.537 | 0.509 | 0.968 | 0.629 | 0.729 | 1.05 | 0.475 | 0.627 | 0.937 | 0.31 | 0.359 | 0.412 | 0.406 | 0.422 | 1.11 | 1.17 | 1.22 | 1.13 | 1.12 | 
LC-2-ad | 0.658 | 0.705 | 0.72 | 0.663 | 0.356 | 0.475 | 0.434 | 0.446 | 0.401 | 0.43 | 0.435 | 0.482 | 0.453 | 0.492 | 0.901 | 0.843 | 0.864 | 1.03 | 0.931 | 0.722
SW 900 | 0.463 |  | 0.768 | 0.655 |  |  |  |  |  | 0.468 | 0.531 |  | 0.452 | 0.389 | 0.961 | 0.702 |  | 0.866 | 0.723 | 
NCI-H322M | 0.766 | 0.717 | 0.961 | 0.923 | 0.431 | 0.552 | 0.498 | 0.478 | 0.542 | 0.46 | 0.5 | 0.485 | 0.507 | 0.639 | 0.905 | 0.993 | 0.887 | 0.946 | 1.12 | 0.718
SK-LU-1 | 0.424 | 0.43 | 0.444 | 0.602 | 0.425 | 0.544 | 0.63 | 0.472 | 0.543 | 0.23 | 0.244 | 0.316 | 0.287 | 0.316 | 0.596 | 0.705 | 0.869 | 0.713 | 0.992 | 0.406
NCI-H1734 | 0.355 | 0.596 | 0.588 | 0.631 | 0.432 | 0.454 |  | 0.466 | 0.45 | 0.281 | 0.311 |  | 0.295 | 0.284 | 0.928 | 0.875 |  | 0.904 | 1.03 | 
HCC-44 | 0.908 | 0.954 | 0.997 | 0.942 | 0.47 | 0.558 | 0.475 | 0.564 | 0.485 | 0.918 | 0.887 |  | 1.13 | 0.944 |  |  |  |  |  | 1.02
NCI-H1703 | 0.377 | 0.513 | 0.401 | 0.421 | 0.232 | 0.245 | 0.257 | 0.283 | 0.23 |  |  |  |  |  | 0.345 | 0.354 | 0.311 | 0.347 | 0.349 | 0.419
NCI-H2170 | 0.652 | 0.559 | 0.517 | 0.578 |  | 0.312 | 0.235 | 0.317 | 0.242 | 0.549 | 0.721 | 0.737 | 0.79 | 0.72 | 1.02 | 1.03 | 1.03 | 0.94 | 1.04 | 0.628
NCI-H1395 | 0.461 | 0.476 | 0.527 | 0.457 | 0.605 | 0.581 |  | 0.602 | 0.577 | 0.703 | 0.72 | 0.681 | 0.721 | 0.821 | 0.889 | 0.942 | 0.864 | 0.992 | 0.868 | 0.455
NCI-H1355 | 0.558 | 0.678 | 0.469 | 0.574 | 0.365 | 0.332 | 0.287 | 0.238 | 0.372 | 0.52 | 0.599 | 0.523 | 0.412 | 0.368 | 0.957 | 0.893 | 0.958 | 0.772 | 0.766 | 0.717
NCI-H1650 | 0.843 | 0.69 | 0.714 | 0.749 | 0.539 | 0.561 | 0.436 | 0.505 | 0.573 | 0.41 | 0.366 | 0.454 | 0.334 | 0.35 | 1.21 | 1.05 | 0.98 | 1.26 | 1.22 | 0.718
IA-LM | 0.726 | 0.726 | 0.896 | 0.802 | 0.273 | 0.264 |  | 0.347 | 0.363 |  |  |  |  |  | 1.28 | 1.01 | 1.12 | 1.19 | 1.23 | 0.749
NCI-H1666 | 0.749 | 0.735 | 0.708 | 0.714 | 0.552 | 0.322 | 0.318 | 0.272 | 0.26 | 0.596 | 0.546 | 0.61 | 0.609 | 0.603 | 0.972 | 0.991 | 0.938 | 0.879 | 1.02 | 0.706
HCC-78 | 0.78 | 0.773 | 0.754 | 0.818 | 0.199 | 0.183 | 0.206 | 0.178 | 0.171 | 0.386 | 0.424 |  | 0.271 | 0.426 | 0.545 | 0.554 |  | 0.509 | 0.552 | 0.688
H3255 | 0.64 | 0.554 | 0.606 | 0.602 | 0.41 | 0.453 | 0.395 | 0.501 | 0.475 | 0.739 | 0.624 | 0.847 | 0.638 | 0.866 | 1.26 | 0.954 | 0.72 | 0.742 | 0.899 | 0.55

Cell Line | relative viability ([1]; first compound 0.02 µM) | relative viability ([1]; first compound 0.06325 µM) | relative viability ([1]; first compound 0.6325 µM) | relative viability ([1]; first compound 2 µM) | relative viability ([2]; first compound 0.02 µM) | relative viability ([2]; first compound 0.06325 µM) | relative viability ([2]; first compound 0.2 µM) | relative viability ([2]; first compound 0.6325 µM) | relative viability ([2]; first compound 2 µM) | relative viability ([3]; first compound 0.02 µM) | relative viability ([3]; first compound 0.06325 µM) | relative viability ([3]; first compound 0.2 µM) | relative viability ([3]; first compound 0.6325 µM) | relative viability ([3]; first compound 2 µM) | relative viability ([4]; first compound 0.02 µM) | relative viability ([4]; first compound 0.06325 µM) | relative viability ([4]; first compound 0.2 µM) | relative viability ([4]; first compound 0.6325 µM) | relative viability ([4]; first compound 2 µM) | relative viability ([1]; first compound 0.2 µM)
NCI-H23 | 0.253 | 0.357 | 0.293 | 0.262 | 0.5 | 0.502 |  | 0.451 | 0.485 | 0.48 | 0.365 | 0.304 | 0.328 | 0.227 | 0.982 | 0.977 | 1.03 | 1.03 | 1.07 | 0.218
NCI-H1944 | 0.382 | 0.368 | 0.377 | 0.403 | 0.323 | 0.326 |  | 0.294 | 0.314 | 0.234 | 0.246 |  | 0.234 | 0.21 | 0.89 | 0.874 |  | 0.826 | 0.77 | 
NCI-H1651 | 0.18 | 0.164 | 0.197 | 0.217 | 0.495 | 0.706 | 0.628 | 0.524 | 0.728 | 0.799 | 0.673 | 0.664 | 0.698 | 0.728 | 0.809 | 0.803 | 0.894 | 0.891 | 0.812 | 0.182
EBC-1 | 0.728 | 0.68 | 0.625 | 0.585 | 0.242 | 0.256 | 0.283 | 0.287 | 0.309 |  |  |  |  |  | 0.0992 | 0.108 | 0.0997 | 0.0962 | 0.0995 | 0.623
COR-L 105 | 0.522 | 0.459 | 0.585 | 0.967 | 0.412 | 0.383 | 0.385 | 0.364 | 0.364 | 0.311 | 0.311 | 0.378 | 0.364 | 0.36 | 1.09 | 0.993 | 0.834 | 0.957 | 0.952 | 0.478
RERF-LC-KJ | 0.736 | 0.681 | 0.528 | 0.468 | 0.748 | 0.524 | 0.55 | 0.445 | 0.497 | 0.428 | 0.407 | 0.621 | 0.558 | 0.512 | 0.924 | 0.938 | 0.867 | 0.859 | 0.779 | 0.763
NCI-H1793 | 0.678 | 0.813 | 0.817 | 0.63 | 0.258 | 0.314 | 0.257 | 0.282 | 0.304 | 0.306 | 0.37 | 0.296 | 0.258 | 0.197 | 0.877 | 0.815 | 0.682 | 0.601 | 0.659 | 0.72
NCI-H1792 | 0.502 | 0.349 | 0.254 | 0.376 | 0.247 | 0.223 | 0.214 |  | 0.275 |  |  |  |  |  |  |  |  |  |  | 0.32
A549 | 0.325 | 0.352 | 0.278 | 0.355 | 0.544 | 0.474 | 0.465 | 0.46 | 0.529 |  |  |  |  |  | 1.03 | 0.97 | 1.04 | 1.13 | 1.16 | 
NCI-H2342 | 0.49 | 0.449 | 0.453 | 0.461 |  |  |  |  |  | 0.492 | 0.437 | 0.556 | 0.438 | 0.505 | 1.15 | 0.927 | 1.05 | 0.914 | 1.13 | 0.47
NCI-H1648 | 1.26 | 1.01 | 0.74 | 0.496 |  |  |  |  |  |  | 0.435 | 0.435 | 0.387 | 0.372 |  |  |  |  |  | 1.02
NCI-H1563 |  |  |  |  | 0.587 | 0.618 | 0.641 | 0.747 | 0.682 |  |  |  |  |  | 1.04 | 0.897 | 0.955 | 0.943 | 0.901 | 
NCI-H522 | 0.615 | 0.685 | 0.556 | 0.691 |  |  |  |  |  | 0.562 | 0.575 | 0.518 | 0.283 | 0.556 |  |  |  |  |  | 0.679
NCI-H1623 |  |  |  |  |  |  |  |  |  | 0.384 | 0.431 | 0.358 | 0.384 | 0.497 | 0.838 | 0.878 | 0.701 | 0.712 | 0.755 | 
NCI-H1299 | 0.96 | 0.97 | 1 | 0.952 | 0.567 | 0.811 | 0.8 | 0.824 | 0.894 |  |  |  |  |  | 1.09 | 1.1 | 1.16 | 1.07 | 1.02 | 1
Calu-6 | 0.504 | 0.528 | 0.488 | 0.787 | 0.841 | 0.776 | 0.9 | 0.936 | 0.897 |  |  |  |  |  | 0.818 | 0.893 | 0.727 | 0.779 | 0.834 | 0.569
